# According to patent publication US20180296523A1, “USE OF POLYMETHOXYLATED FLAVONES TO AMELIORATE CIRCADIAN RHYTHM DISORDERS” (THE BOARD OF REGENTS OF THE UNIVERSITY OF TEXAS SY, priority 2017, published 2018):
# Test system: peripheral tissue explants from PER2::Luc reporter mice
# Assay: PER2::Luc reporter rhythms in peripheral tissue explants
# Format: cell-based, mouse
# Experimental: The chemical screen for circadian clock modulators was conducted at the Chemical Genomics Core facility at the UTHSC-H. The in-house chemical library screened consists of compounds from NIH Clinical Collection, NCI collection and Microsource Spectrum Collection. The screening was conducted largely based on the protocol previously described (Chen et al., 2012). Briefly, 15,000 immortalized fibroblast cells from Clock^Δ19/+ heterozygous mice expressing the PER2::Luc bioluminescence reporter were plated into each well of 96-well plates, and incubated for 3-4 d to allow growth to confluency. Cells were then incubated with 5 μM forskolin for 1-2 h followed by the addition of chemical compounds to the plates with robotic arms (Beckman), and then subjected to continuous monitoring over several days in a temperature-controlled EnVision microplate reader (Perkin Elmer). Data analysis was carried out by using the MultiCycle software (Actimetrics) for measurement of period, phase, and amplitude. […] NOB and a structurally related analog Naringin (NAR) were re-ordered from commercial sources including Sigma and GenDEPOT and dose response validation was conducted using PER2::LucSV reporter fibroblast cells which express stronger bioluminescence signals and thus allow precise measurements of circadian clock effects of compounds (Chen et al., 2012). Tissue explant experiments were conducted as described previously (Chen et al., 2012).
compound,measurement,setting,value
COc1ccc(-c2cc(=O)c3c(OC)c(OC)c(OC)c(OC)c3o2)cc1OC [nobiletin],reporter rhythm in pituitary explants,PER2::Luc Clock^Δ19/+ reporter mice,Clock-enhancing effects
same,reporter rhythm in liver explant,PER2::Luc WT reporter mice,Clock-enhancing effects
same,reporter rhythm in lung explant,PER2::Luc WT reporter mice,Clock-enhancing effects
same,reporter rhythm in pituitary explants,PER2::Luc WT reporter mice,Clock-enhancing effects
same,PER2::Luc reporter rhythms in peripheral tissue explants,from both Clock^Δ19/+ and WT reporter knockin mice,enhanced PER2::Luc reporter rhythms
